# Tests used:
# NCI-H23 lung cells = assay: In vitro human tumor screen, 3H-thymidine assay; assay type: cell-based; details: positive control, doxorubicin 1 μM
# [1] = in vivo; cited from earlier work
# [2] = Metabolic clearance and tolerability of iron dextran, intravenous infusion; parameters: species or system cynomolgus monkeys (Macaca fascicularis); details: cynomolgus monkey, in vivo
# Experimental: Experiments on metabolic clearance rates done on cynomolgus monkeys (species Macaca fascicularis) have shown the safe use of large dosages of elemental iron derived from iron dextran. […] The administered iron dextran remained in the monkey plasma for at least 120 hours, at milligram levels. […] (See, U.S. application Ser. No. 10/888,576 incorporated herein in its entirety.) The monkey model clears the iron dextran from the system much more very rapidly, as compared to humans, because of a higher metabolic rate. Therefore, a longer plasma residence time is anticipated in humans, as has been shown in research, such as, for example, Henderson & Hillman, (1969).
# Experiments on metabolic clearance rates done on cynomolgus monkeys (species Macaca fascicularis) have shown the safe use of large dosages of elemental iron derived from iron dextran. […] The monkey model clears the iron dextran from the system much more very rapidly, as compared to humans, because of a higher metabolic rate. Therefore, a longer plasma residence time is anticipated in humans, as has been shown in research, such as, for example, Henderson & Hillman, (1969).
Compound,inhibitory effect (in words) (NCI-H23 lung cells),clearance rate [1],time to clearance [1],side effects (in words) [2],time remaining in plasma ([2]; iv)
COc1cccc2c1C(=O)c1c(O)c3c(c(O)c1C2=O)C[C@@](O)(C(=O)CO)C[C@@H]3O[C@H]1C[C@H](N)[C@H](O)[C@H](C)O1 [doxorubicin],high inhibitory effect,–,–,–,–
iron dextran [Base Compound],–,10 to 20 mg/h,≤ 3 days,"few negative side effects, i.e. abdominal swelling",at least 120 hours

# — US10328030B2, “Compositions and methods of use for treatment of mammalian diseases” (priority 2004, dated 2019)
